One experiment has as its target MAP4K3 (Homo sapiens, UniProt Q8IVH8). Kind of experiment: Kinase inhibitory activity, full kinase panel. The format is biochemical. Conditions: single concentration of 1 μM, read-out: %Inhibitory ability. The method, then:
(§1) In order to measure inhibitory activity (% inhibitory ability) against a protein kinase with respect to the compound of the present invention, a biochemical assay was performed in a full kinase panel shown in the following Table 1. As an experimental compound, the (S)-5-((3-fluorophenyl)ethynyl)-N-(piperidin-3-yl)-3-ureidothiophene-2-carboxamide synthesized in Example 24 was used.

In the next experiment the target is CHEK2 (Homo sapiens, UniProt O96017). Kind of experiment: Kinase inhibitory activity, full kinase panel. Format: biochemical. As to conditions: single concentration of 1 μM, read-out: %Inhibitory ability. The method, then: as §1
The target of another experiment is PIP5K2B (Homo sapiens, UniProt P78356). The experiment is described as follows: Kinase inhibitory activity, full kinase panel. As to conditions: single concentration of 1 μM, read-out: %Inhibitory ability. Format: biochemical. The method, then:
as §1

In another experiment the target is BIKE (Homo sapiens, UniProt Q9NSY1). Kind of experiment: Kinase inhibitory activity, full kinase panel. Format: biochemical. As to conditions: single concentration of 1 μM, read-out: %Inhibitory ability. How it is done: as §1
The next experiment deals with LRRK2 (Homo sapiens, UniProt Q5S007). Kind of experiment: Kinase inhibitory activity, full kinase panel. The format is biochemical. As to conditions: single concentration of 1 μM, read-out: %Inhibitory ability. The method, then: as §1
The target in the next experiment is OSR1 (Homo sapiens, UniProt O95747). The experiment is described as follows: Kinase inhibitory activity, full kinase panel. As to conditions: single concentration of 1 μM, read-out: %Inhibitory ability. Format: biochemical. How it is done: as §1
The target in the next experiment is MARK2 (Homo sapiens, UniProt Q7KZI7). The experiment is described as follows: Kinase inhibitory activity, full kinase panel. The format is biochemical. Conditions: single concentration of 1 μM, read-out: %Inhibitory ability. How it is done:
as §1

For the next experiment, the target named is DAPK2 (Homo sapiens, UniProt Q9UIK4). The experiment is described as follows: Kinase inhibitory activity, full kinase panel. The format is biochemical. As to conditions: single concentration of 1 μM, read-out: %Inhibitory ability. The method, then: as §1
A further experiment has as its target TNIK (Homo sapiens, UniProt Q9UKE5). The experiment is described as follows: Kinase inhibitory activity, full kinase panel. Conditions: single concentration of 1 μM, read-out: %Inhibitory ability. The format is biochemical. How it is done: as §1
For a further experiment, the target named is PAK4 (Homo sapiens, UniProt O96013). The experiment is described as follows: Kinase inhibitory activity, full kinase panel. The format is biochemical. As to conditions: single concentration of 1 μM, read-out: %Inhibitory ability. The method, then: as §1
The target of a further experiment is EPHA3 (Homo sapiens, UniProt P29320). The experiment is described as follows: Kinase inhibitory activity, full kinase panel. Format: biochemical. As to conditions: single concentration of 1 μM, read-out: %Inhibitory ability. The method, then:
as §1

Another experiment addresses FLT4 (Homo sapiens, UniProt P35916). The experiment is described as follows: Kinase inhibitory activity, full kinase panel. The format is biochemical. Conditions: single concentration of 1 μM, read-out: %Inhibitory ability. How it is done:
as §1

The target in another experiment is RIOK3 (Homo sapiens, UniProt O14730). The experiment is described as follows: Kinase inhibitory activity, full kinase panel. The format is biochemical. Conditions: single concentration of 1 μM, read-out: %Inhibitory ability. How it is done: as §1
The next experiment has as its target FGR (Homo sapiens, UniProt P09769). The experiment is described as follows: Kinase inhibitory activity, full kinase panel. Format: biochemical. As to conditions: single concentration of 1 μM, read-out: %Inhibitory ability. How it is done:
as §1

A further experiment deals with VEGFR2 (Homo sapiens, UniProt P35968). The experiment is described as follows: Kinase inhibitory activity, full kinase panel. The format is biochemical. Conditions: single concentration of 1 μM, read-out: %Inhibitory ability. How it is done:
as §1

A further experiment deals with HPK1 (Homo sapiens, UniProt Q92918). The experiment is described as follows: Kinase inhibitory activity, full kinase panel. The format is biochemical. Conditions: single concentration of 1 μM, read-out: %Inhibitory ability. How it is done: as §1
Another experiment concerns the target AXL (Homo sapiens, UniProt P30530). Kind of experiment: Kinase inhibitory activity, full kinase panel. Conditions: single concentration of 1 μM, read-out: %Inhibitory ability. The format is biochemical. How it is done: as §1
For the next experiment, the target named is MST2 (Homo sapiens, UniProt Q13188). The experiment is described as follows: Kinase inhibitory activity, full kinase panel. The format is biochemical. As to conditions: single concentration of 1 μM, read-out: %Inhibitory ability. The method, then:
as §1

For another experiment, the target named is RIPK4 (Homo sapiens, UniProt P57078). Kind of experiment: Kinase inhibitory activity, full kinase panel. The format is biochemical. Conditions: single concentration of 1 μM, read-out: %Inhibitory ability. How it is done:
as §1

The target in another experiment is PDGFRA (Homo sapiens, UniProt P16234). Kind of experiment: Kinase inhibitory activity, full kinase panel. The format is biochemical. As to conditions: single concentration of 1 μM, read-out: %Inhibitory ability. How it is done:
as §1

In experiment [1] the test system is FLT3-ITD-F691L-D835Y Ba/F3 cells. Kind of experiment: Spleen size in mouse AML model. The format is in vivo. Conditions: 15, 30 mg/kg; after drug administration for 9 days. The method, then: Nude mice (5-6 weeks old)(Orient) were purchased and used after a week. Mice were anesthetized following IACUC approved animal protocol. FLT3-ITD F691L-D835Y, luc+ Ba/F3 cell (Established in-house) suspension (in 0.1 mL RPMI1640 (Welgene) of 1.0×10^6 cells) was injected into tail vein intravenously using a 29-G needle, and an tail mark was added to each animal for identification. After 6 days, the luminescence intensity was measured using IVIS (Perkin Elmer) to calculate the ROI intensity. Once ROI intensity reaches the study-desired minimum intensity (usually 2×106), mice were randomized into different treatment groups based on signal intensity.
Each compound was dissolved in NMP at 20× final concentration and diluted to 1× with the remaining vehicle components (vehicle: 5% NMP, 15% solutol (Sigma-aldrich), 30% PEG400 (Sigma-aldrich), 50% 0.05M citric acid (Sigma-aldrich)). Each compound solution was prepared freshly just before administration. […]
Mice were then euthanized by cervical dislocation while they were still under isoflurane anesthesia. The spleens from the mice were isolated and weighted, and spleen weight index was calculated as organ weight (mg) per gram of mouse body weight. […]
Statistical analysis of luminescence signal intensity, mouse body weight, and spleen/body weight ratio were evaluated using two-way ANOVA. […]

Experiment [2] shares this test system. The experiment is described as follows: In vivo life-span (survival) in mouse AML model. As to conditions: for extension of lifespan compared with vehicle control: oral; for Median survival: qd. The method, then:
Nude mice (5-6 weeks old)(Orient) were purchased and used after a week. Mice were anesthetized following IACUC approved animal protocol. FLT3-ITD F691L-D835Y, luc+ Ba/F3 cell (Established in-house) suspension (in 0.1 mL RPMI1640 (Welgene) of 1.0×10^6 cells) was injected into tail vein intravenously using a 29-G needle, and an tail mark was added to each animal for identification. After 6 days, the luminescence intensity was measured using IVIS (Perkin Elmer) to calculate the ROI intensity.
Each compound solution was prepared freshly just before administration. Compounds were administered orally using a mouse sondae once a day, 0.1 mL per mouse. Mice were humanely euthanized if animals experience 20% body weight loss.

Sequence of CHEK2 (O96017 whole entry, species assumed): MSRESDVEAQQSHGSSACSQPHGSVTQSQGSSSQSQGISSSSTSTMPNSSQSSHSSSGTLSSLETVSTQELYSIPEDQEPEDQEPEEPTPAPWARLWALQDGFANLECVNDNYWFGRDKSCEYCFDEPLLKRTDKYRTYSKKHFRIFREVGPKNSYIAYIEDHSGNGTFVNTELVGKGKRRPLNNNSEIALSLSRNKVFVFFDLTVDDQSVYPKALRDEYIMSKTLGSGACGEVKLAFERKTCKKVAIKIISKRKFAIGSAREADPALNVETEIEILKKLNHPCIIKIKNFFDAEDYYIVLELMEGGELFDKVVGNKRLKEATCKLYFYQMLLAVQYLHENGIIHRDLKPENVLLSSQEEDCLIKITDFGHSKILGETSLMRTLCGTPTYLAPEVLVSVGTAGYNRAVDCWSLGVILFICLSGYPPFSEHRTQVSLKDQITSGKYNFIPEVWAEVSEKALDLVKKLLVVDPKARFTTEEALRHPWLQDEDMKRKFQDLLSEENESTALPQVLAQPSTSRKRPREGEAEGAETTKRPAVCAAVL
Sequence of VEGFR2 (P35968 20-1356, species assumed): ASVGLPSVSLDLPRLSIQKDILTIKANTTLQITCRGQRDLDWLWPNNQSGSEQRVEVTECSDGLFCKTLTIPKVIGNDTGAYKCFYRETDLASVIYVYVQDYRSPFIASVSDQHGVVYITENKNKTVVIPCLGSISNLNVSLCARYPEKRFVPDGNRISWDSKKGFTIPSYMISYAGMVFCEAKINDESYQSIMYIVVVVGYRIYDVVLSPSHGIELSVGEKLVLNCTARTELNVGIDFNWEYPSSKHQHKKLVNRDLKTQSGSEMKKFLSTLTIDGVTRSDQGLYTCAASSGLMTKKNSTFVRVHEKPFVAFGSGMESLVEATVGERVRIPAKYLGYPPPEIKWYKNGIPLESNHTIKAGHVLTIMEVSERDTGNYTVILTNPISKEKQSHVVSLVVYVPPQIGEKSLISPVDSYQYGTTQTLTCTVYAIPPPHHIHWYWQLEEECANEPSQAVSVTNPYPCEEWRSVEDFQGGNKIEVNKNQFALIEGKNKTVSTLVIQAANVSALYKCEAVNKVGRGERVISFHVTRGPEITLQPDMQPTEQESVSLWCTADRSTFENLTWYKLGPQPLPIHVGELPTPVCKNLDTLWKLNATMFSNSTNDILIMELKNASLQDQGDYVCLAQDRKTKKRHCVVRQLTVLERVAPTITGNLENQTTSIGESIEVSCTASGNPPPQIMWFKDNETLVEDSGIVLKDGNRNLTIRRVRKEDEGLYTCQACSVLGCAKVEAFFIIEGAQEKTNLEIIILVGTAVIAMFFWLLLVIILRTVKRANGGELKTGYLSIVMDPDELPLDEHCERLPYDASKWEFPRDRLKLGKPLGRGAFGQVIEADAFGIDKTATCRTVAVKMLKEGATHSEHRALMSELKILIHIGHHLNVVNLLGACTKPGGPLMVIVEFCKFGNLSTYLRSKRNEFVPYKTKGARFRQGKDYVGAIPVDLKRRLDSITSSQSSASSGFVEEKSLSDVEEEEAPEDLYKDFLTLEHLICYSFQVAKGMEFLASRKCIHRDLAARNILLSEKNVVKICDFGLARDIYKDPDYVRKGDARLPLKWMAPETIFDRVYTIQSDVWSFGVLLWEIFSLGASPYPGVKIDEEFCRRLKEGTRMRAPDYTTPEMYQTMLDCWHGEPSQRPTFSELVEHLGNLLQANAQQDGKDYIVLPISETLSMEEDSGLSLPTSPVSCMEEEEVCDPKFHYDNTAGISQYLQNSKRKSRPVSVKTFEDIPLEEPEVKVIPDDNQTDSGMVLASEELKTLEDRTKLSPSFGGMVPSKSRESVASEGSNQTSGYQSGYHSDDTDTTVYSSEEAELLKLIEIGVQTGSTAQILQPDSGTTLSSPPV
Sequence of MAP4K3 (Q8IVH8 whole entry, species assumed): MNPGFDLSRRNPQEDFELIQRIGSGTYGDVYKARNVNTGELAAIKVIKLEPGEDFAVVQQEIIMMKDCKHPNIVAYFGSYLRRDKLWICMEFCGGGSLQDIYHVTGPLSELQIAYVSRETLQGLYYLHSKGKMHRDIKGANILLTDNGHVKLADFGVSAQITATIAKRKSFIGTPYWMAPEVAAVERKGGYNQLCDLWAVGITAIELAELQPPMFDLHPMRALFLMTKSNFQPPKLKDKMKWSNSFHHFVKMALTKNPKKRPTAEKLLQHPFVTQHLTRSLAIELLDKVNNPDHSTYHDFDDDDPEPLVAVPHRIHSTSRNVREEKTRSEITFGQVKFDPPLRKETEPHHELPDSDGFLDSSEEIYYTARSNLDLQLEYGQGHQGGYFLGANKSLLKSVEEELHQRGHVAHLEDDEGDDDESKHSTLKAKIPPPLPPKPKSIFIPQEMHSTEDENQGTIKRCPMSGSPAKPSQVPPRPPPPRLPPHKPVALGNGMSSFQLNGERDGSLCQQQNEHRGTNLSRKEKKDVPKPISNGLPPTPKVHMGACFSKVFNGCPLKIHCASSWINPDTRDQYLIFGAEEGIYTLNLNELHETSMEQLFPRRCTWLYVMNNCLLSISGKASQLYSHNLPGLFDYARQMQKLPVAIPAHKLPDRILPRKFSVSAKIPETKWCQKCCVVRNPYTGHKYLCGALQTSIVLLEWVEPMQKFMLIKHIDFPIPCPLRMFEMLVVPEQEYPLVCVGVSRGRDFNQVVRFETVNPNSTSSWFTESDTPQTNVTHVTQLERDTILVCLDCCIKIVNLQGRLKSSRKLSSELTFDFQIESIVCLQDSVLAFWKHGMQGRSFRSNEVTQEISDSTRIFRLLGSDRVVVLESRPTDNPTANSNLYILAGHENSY
Sequence of MARK2 (Q7KZI7 whole entry, species assumed): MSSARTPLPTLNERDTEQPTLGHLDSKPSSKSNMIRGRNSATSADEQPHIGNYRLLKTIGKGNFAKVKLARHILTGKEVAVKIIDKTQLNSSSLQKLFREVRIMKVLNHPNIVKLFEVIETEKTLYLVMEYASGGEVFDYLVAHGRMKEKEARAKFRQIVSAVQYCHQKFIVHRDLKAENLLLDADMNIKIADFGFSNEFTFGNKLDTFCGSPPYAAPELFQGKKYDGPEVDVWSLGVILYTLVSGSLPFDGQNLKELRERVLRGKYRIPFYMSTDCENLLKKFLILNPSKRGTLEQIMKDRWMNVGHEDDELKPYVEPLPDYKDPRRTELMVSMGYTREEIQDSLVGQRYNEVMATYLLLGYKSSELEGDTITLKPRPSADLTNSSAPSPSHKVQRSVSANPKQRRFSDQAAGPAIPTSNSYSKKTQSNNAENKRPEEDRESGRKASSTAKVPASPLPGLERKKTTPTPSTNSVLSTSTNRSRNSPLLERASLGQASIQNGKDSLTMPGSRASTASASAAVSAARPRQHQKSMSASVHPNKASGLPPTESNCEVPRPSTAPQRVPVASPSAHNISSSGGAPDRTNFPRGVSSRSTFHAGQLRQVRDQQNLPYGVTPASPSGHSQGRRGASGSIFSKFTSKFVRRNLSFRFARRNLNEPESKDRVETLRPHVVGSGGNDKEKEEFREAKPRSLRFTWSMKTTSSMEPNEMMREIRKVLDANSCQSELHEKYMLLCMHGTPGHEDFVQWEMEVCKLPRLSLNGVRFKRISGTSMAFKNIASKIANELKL
Sequence of AXL (P30530 26-894, species assumed): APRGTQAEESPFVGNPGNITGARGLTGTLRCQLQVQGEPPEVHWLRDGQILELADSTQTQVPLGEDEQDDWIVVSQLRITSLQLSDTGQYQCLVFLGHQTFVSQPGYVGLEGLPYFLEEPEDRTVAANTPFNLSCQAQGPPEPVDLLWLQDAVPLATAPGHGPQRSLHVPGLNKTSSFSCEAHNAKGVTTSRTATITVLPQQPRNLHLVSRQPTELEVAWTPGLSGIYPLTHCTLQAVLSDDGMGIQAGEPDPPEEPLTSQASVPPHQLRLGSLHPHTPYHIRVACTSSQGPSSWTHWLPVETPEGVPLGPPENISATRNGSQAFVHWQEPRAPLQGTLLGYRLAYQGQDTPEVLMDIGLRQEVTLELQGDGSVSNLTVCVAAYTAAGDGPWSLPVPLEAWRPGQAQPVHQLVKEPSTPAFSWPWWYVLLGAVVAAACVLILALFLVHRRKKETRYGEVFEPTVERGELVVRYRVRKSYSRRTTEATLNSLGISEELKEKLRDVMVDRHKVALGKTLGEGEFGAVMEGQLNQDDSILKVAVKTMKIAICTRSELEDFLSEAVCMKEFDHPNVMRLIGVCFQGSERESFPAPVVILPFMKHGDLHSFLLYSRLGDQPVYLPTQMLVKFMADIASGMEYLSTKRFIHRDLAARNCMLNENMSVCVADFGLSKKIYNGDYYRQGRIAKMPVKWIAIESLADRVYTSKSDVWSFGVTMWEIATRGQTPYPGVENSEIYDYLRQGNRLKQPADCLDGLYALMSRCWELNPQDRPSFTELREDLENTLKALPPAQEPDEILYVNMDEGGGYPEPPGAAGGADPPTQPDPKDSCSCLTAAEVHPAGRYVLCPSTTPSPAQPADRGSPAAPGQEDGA
Sequence of RIOK3 (O14730 whole entry): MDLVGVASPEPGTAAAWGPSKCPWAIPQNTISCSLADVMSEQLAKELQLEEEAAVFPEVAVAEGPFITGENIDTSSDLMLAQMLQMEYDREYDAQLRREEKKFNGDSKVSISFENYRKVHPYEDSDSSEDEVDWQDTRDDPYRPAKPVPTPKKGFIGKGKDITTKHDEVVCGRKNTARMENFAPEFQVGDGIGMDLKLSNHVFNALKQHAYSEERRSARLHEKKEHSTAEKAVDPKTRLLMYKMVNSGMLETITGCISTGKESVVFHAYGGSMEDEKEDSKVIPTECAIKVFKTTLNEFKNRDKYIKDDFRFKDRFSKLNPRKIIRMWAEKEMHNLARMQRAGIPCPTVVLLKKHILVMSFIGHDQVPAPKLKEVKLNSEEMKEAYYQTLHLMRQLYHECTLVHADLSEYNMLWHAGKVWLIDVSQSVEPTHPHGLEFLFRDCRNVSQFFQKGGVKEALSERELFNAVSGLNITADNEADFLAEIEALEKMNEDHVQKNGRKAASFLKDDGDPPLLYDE

As for `Cc1ccc(C#Cc2cc(NC(N)=O)c(C(=O)N[C@H]3CCCNC3)s2)cc1` [Example 24, (S)—N-(piperidin-3-yl)-5-(p-tolylethynyl)-3-ureidothiophene-2-carboxamide], the inhibition at 1 µM turned out to be 69% on MAP4K3; 100% at CHEK2; 74% on PIP5K2B; 77% on BIKE; 72% at LRRK2; 68% at OSR1. In addition, the inhibition at 1 µM on MARK2 worked out at 79%; at DAPK2, 88%; on TNIK, 96.3%; on PAK4, 92.2%; on EPHA3 it was 80%; at FLT4, 94.5%. In addition, the inhibition at 1 µM came to 79% at RIOK3; 94.1% on FGR; 73% on VEGFR2; 78% at HPK1; 87% at AXL; 92.5% on MST2. For the same compound, the inhibition at 1 µM amounted to 97.6% on RIPK4 and 95.8% at PDGFRA.
For the compound `NC(=O)Nc1cc(C#Cc2cccc(F)c2)sc1C(=O)N[C@H]1CCCNC1` [Example 22, (S)-5-((3-fluorophenyl)ethynyl)-N-(piperidin-3-yl)-3-ureidothiophene-2-carboxamide], in experiment [1], the “spleen size (spleen weight over mouse body weight)” value is “reduced to the disease free spleen size”. In addition, the “extension of lifespan compared with vehicle control” value turned out to be 26 days in experiment [2] (15 mpk) and 29 days in [2] (30 mpk). For the same compound, the Median survival in experiment [2] (15 mpk, po) came out at 23; in experiment [2] (30 mpk, po), 27. The “life-span of the mouse model (in words)” value in [2] (po, qd, 15, 30 mg/kg) is “extended significantly the life-span”.

The values above are taken from patent publication US10442796B2, “2,3,5-substituted thiophene compound as protein kinase inhibitor” (KOREA INSTITUTE OF SCIENCE AND TECHNOLOGY, priority 2016, dated 2019).
